{"source": "patent US7939554B2", "about": "“Protein phosphatase inhibitors” (The Cleveland Clinic Foundation, priority 2006, dated 2011)", "key": {"recombinant SHP-1": {"target": "T1, recombinant SHP-1 (Homo sapiens, UniProt P29350)", "T1 construct": "Recombinant protein of SHP-1 PTPase catalytic domain was described", "T1 sequence (P29350 244-515 limits assumed)": "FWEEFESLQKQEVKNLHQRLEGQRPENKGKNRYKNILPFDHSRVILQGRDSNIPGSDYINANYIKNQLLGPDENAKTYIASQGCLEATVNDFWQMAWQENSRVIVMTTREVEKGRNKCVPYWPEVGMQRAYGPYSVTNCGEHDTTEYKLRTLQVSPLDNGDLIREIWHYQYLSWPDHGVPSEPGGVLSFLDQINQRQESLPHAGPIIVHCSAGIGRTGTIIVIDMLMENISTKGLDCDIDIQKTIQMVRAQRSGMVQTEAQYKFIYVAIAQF", "assay": "rapid in vitro SHP-1 PTPase assay (DIFMUP fluorescence substrate)", "type": "biochemical", "conditions": "L5 and analogs, 1 μg/well; FIG. 12A", "method": "Recombinant protein of SHP-1 PTPase catalytic domain was described and stored in Tris buffer (25 mM Tris, pH7.5, 1 mM EDTA, 2 μM 2-ME, 25% glycerol) at −80° C. Fluorescence substrate DIFMUP (6,8-difluoro-4 methylumbelliferyl phosphate) was purchased (Molecular Probes). SSG was reported previously (21-23) and stored at 4° C. in darkness prior to use. Human and mouse IFNγ ELISPOT Kit (R & D System), CD4^+ Cell Intracellular IFNγ Detection Kit (BD Bioscience) and CD8^+ Cell Intracellular IFNγ Detection Kit (BD Bioscience) were purchased from commercial sources. Human Jurkat T cell line (26) and murine B16 melanoma cell line (ATCC) were maintained in […] culture medium supplemented with 10% fetal calf serum (FCS). Antibodies against pLck-pY394 (Cell Signaling), pLck-pY505 (Cell Signaling), pZap70 (pY319, BD Biosciences), pSlp76 (pY128, BD Biosciences) and pLat (pY226, BD Biosciences) were purchased from commercial sources.\nA rapid SHP-1 PTPase assay was developed for screening the compounds in a commercial library of 34,000 drug-like small chemicals (Chembridge, Mass.). Briefly, compounds of the library (1 μg/well in […]) were placed in 96-well plates (Falcon, 353072) and mixed with recombinant SHP-1 protein (0.1 μg/well) in […] of HEPES buffer (50 mM HEPS, pH 7.5, 150 mM NaCl, 1 mM EDTA, 0.2 mM DTT and 0.1 mg/ml BSA). The plates were incubated at room temperature for 10 minutes prior to the addition of fluorescence substrate DIFMUP (40 μM stock in HEPES buffer, 10 μl/well) to initiate PTPase reaction. Upon completion of PTPase reaction at room temperature for 1 hr in darkness, fluorescence signal of individual wells were recorded using a Vector^2 Multilabel Counter (Vector, CA). They were compared to that of control SHP-1 PTPase reaction (˜10,000 units of fluorescence signal) in the absence of any compound (100%) for calculating relative SHP-1 inhibition induced by the compounds after subtracting the background signal (˜500 units of fluorescence signal) of the substrate.\nTo evaluate their SHP-1 inhibitory activity, the analogs (1 μg/well in 0.2 μl DMSO) were aliquot individually to 96-well plates (Falcon, 353072) and mixed with recombinant SHP-1 protein (0.1 μg/well) in 90 μl of HEPES buffer (50 mM HEPS, pH 7.5, 150 mM NaCl, 1 mM EDTA, 0.2 mM DTT and 0.1 mg/ml BSA). The plates were incubated at room temperature for 10 minutes prior to the addition of fluorescence substrate DIFMUP (40 μM stock in HEPES buffer, 10 μl/well) to initiate PTPase reaction. Upon completion of PTPase reaction at room temperature for 1 hr in darkness, fluorescence signal of individual wells were recorded using a Vector^2 Multilabel Counter (Vector, CA). […]"}, "mouse splenocytes": {"system": "mouse splenocytes", "assay": "induction of IFNγ+ cells in mouse splenocytes in vitro (ELISPOT)", "type": "cell-based", "method": "The splenocytes were cultured in RPMI 1640 medium supplemented with 10% FCS in the absence or presence of designated agents for 16 hrs in flat-bottom 96-well plates coated with a monoclonal antibody specific for mouse IFNγ (mouse IFNγ ELISPOT Kit, R & D System). The plates were then processed for in situ detection of IFNγ+ cells by ELISA following the manufacturer's procedure. Scanning and counting of IFNγ+ cells in the plates were accomplished using an automatic ELISPOT reader with Immunospot2 software (Cellular Technology Ltd). Mouse splenocytes were also untreated or treated with agents for 16 hrs in culture dishes and then stained with appropriate isotype control antibodies or FICT-labeled anti-CD3 monoclonal antibody (BD) plus PE-labeled monoclonal antibody (BD) for intracellular IFNγ following established procedures. The stained samples were washed 3 times, re-suspended in 200 μl of 1% para-formaldehyde solution and analyzed (20,000 cells/sample) using a BD FACS Caliburs cytometer and WinList software.\nThe splenocytes were cultured in RPMI 1640 medium supplemented with 10% FCS in the absence or presence of designated agents for 16 hrs in flat-bottom 96-well plates coated with a monoclonal antibody specific for mouse IFNγ (mouse IFNγ ELISPOT Kit, R & D System). The plates were then processed for in situ detection of IFNγ+ cells by ELISA following the manufacturer's procedure. Scanning and counting of IFNγ+ cells in the plates were accomplished using an automatic ELISPOT reader with Immunospot2 software (Cellular Technology Ltd)."}, "B16 melanoma tumors": {"system": "B16 melanoma tumors", "assay": "B16 melanoma tumor growth in athymic nude mice", "type": "in vivo, mouse", "conditions": "3 mg/kg/day, oral", "quoted_text": "To assess L5 anti-tumor activity, C57BL/6J mice or athymic nude mice (˜8-week old, female, Taconic Farms, Germantown, N.Y.) were inoculated (s.c.) at the flanks with B16 melanoma cells (4×10^4 cells/site). Four days post-inoculation, the mice were treated with PBS (Control) or L5 (˜3 mg/kg body weight/daily, Monday-Friday/week, oral gavage). Tumor volume (n=5) was measured during the study period and calculated using the formula for a prolate spheroid. Student's t test was used for assessing the significance of tumor volume differences among differential treatment groups. Mouse viability (daily) and body weights (weekly) were also recorded during the study period. Major internal organs of the mice were inspected visually upon their termination at the end of the experiment."}}}
{"smiles": "O=C1C=CC(=O)C(c2cc(Cl)ccc2Cl)=C1", "note": "[L5]", "values": [{"measurement": "inhibition of phosphatase activity of recombinant SHP-1", "setting": "recombinant SHP-1", "result": "completely or almost completely inhibited"}, {"measurement": "induction of IFNγ+ cells", "setting": "mouse splenocytes; 0.001 μg/ml, 16 hrs", "result": "inactive"}, {"measurement": "increase of IFNγ+ cells in splenocytes", "setting": "mouse splenocytes; 1 μg/ml, 16 hrs", "result": "~14", "unit": "fold"}, {"measurement": "increase of IFNγ+ cells in splenocytes", "setting": "mouse splenocytes; 3 μg/ml, 16 hrs", "result": "~26", "unit": "fold"}, {"measurement": "increase of IFNγ+ cells in splenocytes", "setting": "mouse splenocytes; 10 μg/ml, 16 hrs", "result": "~17", "unit": "fold"}, {"measurement": "increase of IFNγ+ cells in splenocytes", "setting": "mouse splenocytes; 30 μg/ml, 16 hrs", "result": "~10", "unit": "fold"}, {"measurement": "minimal effective dose for IFNγ+ cell induction", "setting": "mouse splenocytes; FIG. 11", "result": 10, "unit": "ng/mL"}, {"measurement": "induction of IFNγ+ cells", "setting": "mouse splenocytes; low doses (0.01 to 1 μg/ml), same mouse, FIG. 16", "result": "3-4 fold"}, {"measurement": "effectiveness relative to SSG in inducing IFNγ+ cells", "setting": "mouse splenocytes; maximal induction at a comparable dose, mouse splenocytes", "result": "~58", "unit": "fold"}, {"measurement": "B16 tumor growth in T-cell-deficient mice", "setting": "B16 melanoma tumors", "result": "not inhibited"}]}
